Test [1] concerns MV4-11 cells. As to the kind of experiment: AML cell proliferation inhibitory activity (CellTiter-Glo). Format: cell-based. The conditions noted are these: Homo sapiens, 72 hours. The protocol:
The inhibitory activities of the example compounds according to the present invention on the proliferation of acute myeloid leukemia (AML) cells expressing the FLT3 mutant gene were evaluated. Specifically, RS4;11 and MV4-11 cells as acute myeloid leukemia cells expressing the FLT3 mutant gene were cultured in RPMI-1640 (Invitrogen) adding 10% FBS. The cells were seeded into each well of a clear bottom white 96-well plate (Corning) at 3000 to 5000 cells 24 hours before compound treatment. The compound was diluted in DMSO (diluted each three-fold, to a total of 12 concentrations) and injected at 0.5 μL each so as to be a final concentration of 0.3 nM to 50 μM. After 72 hours of the compound treatment, they were treated with CellTiter-Glo Luminescent Cell Viability assay (Promega) and stored at room temperature for 10 minutes, and luminescence intensities were measured with a reader (SynergyNeo, Biotek) to count viable cells. Each experiment was performed three times repeatedly. The result values were calculated as the cell growth rate (%) compared to the control treated with the solvent. The graph was derived using the GraphPad Prism program (version 5.0), the GI50 (nM) values were calculated, and the results were shown in Table 3 below.

Test [2] concerns the target T1, human FLT3-ITD enzyme (Homo sapiens, UniProt P36888).
T1 sequence (P36888 1-993): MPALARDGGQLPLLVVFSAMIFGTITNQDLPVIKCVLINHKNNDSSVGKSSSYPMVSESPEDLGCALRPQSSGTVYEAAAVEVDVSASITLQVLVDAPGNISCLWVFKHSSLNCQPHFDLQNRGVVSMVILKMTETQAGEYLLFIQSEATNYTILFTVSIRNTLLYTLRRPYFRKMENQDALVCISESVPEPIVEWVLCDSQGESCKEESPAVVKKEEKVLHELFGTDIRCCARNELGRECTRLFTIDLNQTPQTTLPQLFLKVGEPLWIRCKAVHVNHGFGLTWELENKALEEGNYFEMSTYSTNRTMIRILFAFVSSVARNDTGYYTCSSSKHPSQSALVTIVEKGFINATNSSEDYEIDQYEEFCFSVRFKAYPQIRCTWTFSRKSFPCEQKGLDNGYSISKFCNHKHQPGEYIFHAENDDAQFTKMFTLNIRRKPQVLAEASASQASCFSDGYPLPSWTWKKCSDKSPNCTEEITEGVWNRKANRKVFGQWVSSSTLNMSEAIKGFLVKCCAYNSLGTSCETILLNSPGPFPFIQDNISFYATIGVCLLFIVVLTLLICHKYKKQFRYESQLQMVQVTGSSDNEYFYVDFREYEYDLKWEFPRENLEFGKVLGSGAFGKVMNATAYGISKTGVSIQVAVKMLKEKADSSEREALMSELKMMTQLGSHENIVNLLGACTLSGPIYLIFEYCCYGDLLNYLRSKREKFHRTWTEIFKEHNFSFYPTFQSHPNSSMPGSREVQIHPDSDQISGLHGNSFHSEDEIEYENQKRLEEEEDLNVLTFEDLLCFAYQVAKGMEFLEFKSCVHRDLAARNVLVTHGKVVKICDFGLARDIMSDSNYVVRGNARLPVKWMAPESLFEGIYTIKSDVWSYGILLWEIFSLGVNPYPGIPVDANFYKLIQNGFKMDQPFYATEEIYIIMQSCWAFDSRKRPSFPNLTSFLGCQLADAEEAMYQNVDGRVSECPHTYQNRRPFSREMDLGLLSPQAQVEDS
The test can be described thus: FLT3 enzyme inhibitory ability (ADP-Glo kinase assay). The class given is biochemical. The conditions noted are these: human FLT3-ITD enzyme 10 ng, ATP 10 μM, 25° C. 1 hour. Summed up:
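Purified human FLT3-ITD (10 ng) with 10 μM ATP and specific substrate in 40 mM Tris-HCl pH 7.4, 20 mM MgCl2, 0.5 mg/mL BSA, 50 μM DTT, 1 h at 25 °C. ADP formation read by ADP-Glo luminescence; IC50 (nM) versus solvent-treated control.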

Test [3] deals with T2, human GST-HPK1 (1-346) (Homo sapiens, UniProt Q92918).
T2 construct: purified human GST-HPK1 (1-346, Signalchem) enzyme; purchased Signalchem
T2 sequence (Q92918 1-346): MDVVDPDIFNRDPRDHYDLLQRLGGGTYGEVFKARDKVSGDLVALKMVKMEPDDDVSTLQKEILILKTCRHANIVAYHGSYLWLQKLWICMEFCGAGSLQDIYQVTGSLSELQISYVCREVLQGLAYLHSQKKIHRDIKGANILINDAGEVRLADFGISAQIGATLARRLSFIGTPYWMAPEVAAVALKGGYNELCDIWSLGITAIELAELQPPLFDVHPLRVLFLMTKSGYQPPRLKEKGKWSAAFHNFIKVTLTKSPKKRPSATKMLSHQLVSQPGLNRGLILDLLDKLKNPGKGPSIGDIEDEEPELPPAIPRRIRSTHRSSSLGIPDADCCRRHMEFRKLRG
The test can be described thus: HPK1 enzyme inhibitory ability (ADP-Glo kinase assay). Format: biochemical. The note with it: human GST-HPK1 3 ng, ATP 3 uM, 25° C. 2 hours. Put shortly: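 Human GST-HPK1(1-346), 3 ng, reacted with 3 uM ATP and specific substrate in 40 mM Tris-HCl pH 7.4, 20 mM MgCl2, 0.5 mg/mL BSA, 50 uM DTT for 2 h at 25° C. ADP-Glo luminescence read; IC50 (nM) relative to untreated solvent control.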

In test [4] the test system is MCF-7 cells. As to the kind of experiment: Breast cancer cell line proliferation inhibitory activity (CellTiter-Glo 2.0). Format: cell-based. The note with it: Homo sapiens, MCF7, 120 hours. The procedure: In order to evaluate the breast cancer cell line cell proliferation inhibitory activities of Examples according to the present invention, the following experiment was performed. Breast cancer cells of MCF-7 (Korean Cell Line Bank) were planted in a clear bottom white 96-well plate (Corning) so as to be 3×10^3/150 μl/well, and a culture solution comprising the compound continuously diluted in multiples of 3 at 12 concentrations (0.00001-2 mM) and a DMSO control group was added by 0.5 μl/well and treated so that the final concentration was 0.00005-10 μM, and then cultured in a 37° C. CO2 incubator for 120 hours. After 120 hours, the plate treated with the compound is taken out, and CellTiter-Glo® 2.0 Assay (Promega) solution is treated at 150 μl/well and then they mix well. They mix well at room temperature for 10 minutes or so, and the fluorescence is measured with a microplate reader. The data were expressed as a percentage in proportion to the vehicle standard treated cells, the GI50 (nM) values were calculated using GraphPad Prism 8.3.0 (GraphPad software Inc., San Diego), and the results were shown in Table 3 below.

Consider `C1=NN(c2nc(Nc3ccc(N4CCOCC4)cc3)nc3ccsc23)C(c2ccccc2)C1` (centres unmarked) [Example 3, N-(4-morpholinophenyl)-4-(5-phenyl-4,5-dihydro-1H-pyrazol-1-yl)thieno[3,2-d]pyrimidin-2-amine], for which the GI50 in test [1] was over 500 nM.
For the compound `CN1CCN(c2ccc(Nc3nc(N4N=CCC4c4ccccc4)c4sccc4n3)nc2)CC1` (centres unmarked) [Example 4, N-(5-(4-methylpiperazin-1-yl)pyridin-2-yl)-4-(5-phenyl-4,5-dihydro-1H-pyrazol-1-yl)thieno[3,2-d]pyrimidin-2-amine], in test [2], the IC50 is over 500 nM. Besides, the GI50 in test [1] is over 500 nM.
For the compound `COc1cc(N2CCC(N3CCN(C)CC3)CC2)ccc1Nc1nc(N2N=CCC2c2ccccc2)c2sccc2n1` (centres unmarked) [Example 10, N-(2-methoxy-4-(4-(4-methylpiperazin-1-yl)piperidin-1-yl)phenyl)-4-(5-phenyl-4,5-dihydro-1H-pyrazol-1-yl)thieno[3,2-d]pyrimidin-2-amine], in test [2], the IC50 is at least 250 nM. For the same compound, the GI50 in test [1] was over 500 nM.
Turning to `Cc1cc(N2CCOCC2)ccc1Nc1nc(N2N=CCC2c2ccccc2)c2sccc2n1` (centres unmarked) [Example 21, N-(2-methyl-4-morpholinophenyl)-4-(5-phenyl-4,5-dihydro-1H-pyrazol-1-yl)thieno[3,2-d]pyrimidin-2-amine], the GI50 in test [1] is over 500 nM.
As to `O=C(c1ccc(Nc2nc(N3N=CCC3c3ccccc3)c3sccc3n2)cc1)N1CCOCC1` (centres unmarked) [Example 22, morpholino(4-((4-(5-phenyl-4,5-dihydro-1H-pyrazol-1-yl)thieno[3,2-d]pyrimidin-2-yl)amino)phenyl)methanone], the GI50 in test [1] is over 500 nM.
On the same count and under the same terms, the figure for `Cc1cn(Cc2ccc(Nc3nc(N4N=CCC4c4ccccc4)c4sccc4n3)cc2)cn1` (centres unmarked) [Example 23, N-(4-((4-methyl-1H-imidazol-1-yl)methyl)phenyl)-4-(5-phenyl-4,5-dihydro-1H-pyrazol-1-yl)thieno[3,2-d]pyrimidin-2-amine] is over 500 nM; for `Cc1cn(Cc2cccc(Nc3nc(N4N=CCC4c4ccccc4)c4sccc4n3)c2)cn1` (centres unmarked) [Example 24, N-(3-((4-methyl-1H-imidazol-1-yl)methyl)phenyl)-4-(5-phenyl-4,5-dihydro-1H-pyrazol-1-yl)thieno[3,2-d]pyrimidin-2-amine] it is over 500 nM.
Same read-out and setting: the figure for `CN(C)CCn1cc(Nc2nc(N3N=CCC3c3ccccc3)c3sccc3n2)cn1` (centres unmarked) [Example 27, N-(1-(2-(dimethylamino)ethyl)-1H-pyrazol-4-yl)-4-(5-phenyl-4,5-dihydro-1H-pyrazol-1-yl)thieno[3,2-d]pyrimidin-2-amine] is over 500 nM.
As for `CN1CCC(NC(=O)c2ccc(Nc3nc(N4OCC[C@H]4c4ccccc4)c4cc[nH]c4n3)cc2)CC1` [Example 95, (S)-N-(1-methylpiperidin-4-yl)-4-((4-(3-phenylisoxazolidin-2-yl)-7H-pyrrolo[2,3-d]pyrimidin-2-yl)amino)benzamide], the IC50 in test [2] was over 500 nM; in test [3], at least 250 nM. For the same compound, the GI50 in test [4] is over 500 nM.
As to `CN(C)[C@H]1CCN(c2cccc(Nc3nc(N4OCC[C@H]4c4ccccc4)c4cc[nH]c4n3)c2)C1` [Example 99, N-(3-((S)-3-(dimethylamino)pyrrolidin-1-yl)phenyl)-4-((S)-3-phenylisoxazolidin-2-yl)-7H-pyrrolo[2,3-d]pyrimidin-2-amine], the IC50 in test [2] and in test [3] was over 500 nM throughout. Also, the GI50 in test [4] is over 500 nM.
Consider `CN(C)[C@@H]1CCN(c2cccc(Nc3nc(N4OCC[C@H]4c4ccccc4)c4cc[nH]c4n3)c2)C1` [Example 100, N-(3-((R)-3-(dimethylamino)pyrrolidin-1-yl)phenyl)-4-((S)-3-phenylisoxazolidin-2-yl)-7H-pyrrolo[2,3-d]pyrimidin-2-amine], for which the IC50 in test [2] and in test [3] was over 500 nM in each case. Also, the concentration for 50% growth inhibition (GI50) in test [4] is over 500 nM.
For `CC1(C)OC(=O)c2ccc(Nc3nc(N4OCC[C@H]4c4ccccc4)c4cc[nH]c4n3)cc21` [Example 115, (S)-3,3-dimethyl-5-((4-(3-phenylisoxazolidin-2-yl)-7H-pyrrolo[2,3-d]pyrimidin-2-yl)amino)isobenzofuran-1(3H)-one], the IC50 in test [2] and in test [3] was over 500 nM each time. The same compound had a GI50 in test [4] of over 500 nM.
Turning to `COc1cc(N2CCC(N3CCN(C)CC3)CC2)ccc1Nc1nc(N2OCC[C@H]2c2ccccc2)c2c(C#N)c[nH]c2n1` [Example 121, (S)-2-((2-methoxy-4-(4-(4-methylpiperazin-1-yl)piperidin-1-yl)phenyl)amino)-4-(3-phenylisoxazolidin-2-yl)-7H-pyrrolo[2,3-d]pyrimidine-5-carbonitrile], the IC50 in test [2] and in test [3] was over 500 nM throughout. The compound further yielded a GI50 in test [4] of at least 250 nM.
For `CN(C)[C@@H]1CCN(c2cccc(Nc3nc(N4OCC[C@@H]4c4ccccc4)c4cc[nH]c4n3)c2)C1` [Example 125, N-(3-((R)-3-(dimethylamino)pyrrolidin-1-yl)phenyl)-4-((R)-3-phenylisoxazolidin-2-yl)-7H-pyrrolo[2,3-d]pyrimidin-2-amine], the IC50 in test [2] and in test [3] was over 500 nM in each case. The GI50 in test [4] was over 500 nM.
Consider `CN(C)[C@H]1CCN(c2cccc(Nc3nc(N4OCC[C@@H]4c4ccccc4)c4cc[nH]c4n3)c2)C1` [Example 126, N-(3-((S)-3-(dimethylamino)pyrrolidin-1-yl)phenyl)-4-((R)-3-phenylisoxazolidin-2-yl)-7H-pyrrolo[2,3-d]pyrimidin-2-amine], for which the IC50 in test [2] and in test [3] was over 500 nM each time. Also, the GI50 in test [4] is over 500 nM.
In the case of `CN1CCN(c2ccc(Nc3nc(N4OCC[C@@H]4c4ccccc4)c4cc[nH]c4n3)cc2)CC1` [Example 128, (R)-N-(4-(4-methylpiperazin-1-yl)phenyl)-4-(3-phenylisoxazolidin-2-yl)-7H-pyrrolo[2,3-d]pyrimidin-2-amine], the GI50 in test [1] was in the range of 250 to 500 nM.

The record behind these values is patent US20220242870A1, “HETEROCYCLE-FUSED PYRIMIDINE DERIVATIVE AND USE THEREOF” (VORONOI Inc., priority 2019, published 2022).
